Laboratory results published in US11154057B2, “Use of nootkatone to treat mosquito infestations” (EVOLVA SA, priority 2016, dated 2021).

Key:
Format in all cases: in vivo
[1] = test system: 3rd and 4th instar larvae; assay: Duration of protection from larvae, Method 2: individual pre-treated beakers used once (Example No. 4); settings: for larvae mortality rates: through one week of treatment
Protocol: Method 2: Clean, glass 600 mL beakers were set up as test containers (such that the surface area of water to be treated was 54 cm^2), and were treated with 1 mL of 1% or 3% nootkatone in ethanol (v/v), or 1 mL of ethanol alone, to achieve a final concentration of 0.01% or 0.03% nootkatone (v/v), respectively. Beakers were lightly covered with Kimwipes to prevent contamination, and to reduce evaporation. Beakers treated with 1 mL of 100% ethanol were used as controls. Four cohorts of 25 3rd and 4th instar larvae were added to individual beakers per day, 3-14 days after treatment with nootkatone, and mortality of larvae was recorded 24 and 48 hours after addition of larvae to beakers.
For the experimental data shown in FIGS. 5-7, the method used included addition and removal of water, and potentially, removal of nootkatone, on each succeeding day. In a new experiment, individual beakers were set up in advance, so that all beakers were used one and only one time to test the longevity of nootkatone, with the only possible loss due to evaporation.
In a separate experiment using the same setup, nootkatone-treated beakers were held for two weeks prior to addition of larvae. Due to the extended time delay, more than 50% of the original liquid volume had evaporated. To avoid having a potentially higher concentration of nootkatone than the desired 0.03%, sterile water was added to bring the total volume back to 100 mL before larval cohorts were added.

Aedes aegypti pupae [2] = assay: Efficacy against mosquito pupae (Example No. 6); settings: for pupae died within 24 hours: 0.03% nootkatone/1% ethanol
Protocol: Eggs of Aedes aegypti were purchased from a commercial supplier. Eggs were hatched in sterile MilliQ water and fed with finely ground Tetramin® fish food until they developed into pupae.
Clean, glass 600 mL beakers were washed and thoroughly rinsed prior to use as test containers. On testing days, pupae were removed from dishes used to grow larvae. Replicates of 10 pupae each were randomly assigned to glass beakers in a volume of 100 mL of sterile MilliQ water, and a treatment of nootkatone (see “Treatments” below), or a control treatment of ethanol alone, was added. Three control replicates and 4 treated replicates were tested on one day, and on a second day, two control replicates and four treated replicates were tested. The beakers were then covered lightly with Kimwipes, secured by rubber bands to prevent escape of adults. The beakers were observed after 24 hours, and the numbers of live pupae, dead pupae, live adults, and dead adults were recorded.
An aliquot of 1 mL of a 3% solution (w/v) of nootkatone in 100% ethanol was added to treatment beakers to obtain a final concentration of 0.03% nootkatone/1% ethanol. Control beakers received 1 mL of 100% ethanol, to obtain a final concentration of 1% ethanol.

Aedes aegypti pupae [3] = assay: Prevention of adult emergence (eclosion) from pupae (Example No. 7); settings: for Dead adults, total number / Dead pupae, total number / live adults, total number / live pupae, total number: 0.015% NK/0.5% EtOH in water
Protocol: Eggs of Aedes aegypti were purchased from a commercial supplier. They were hatched in sterile MilliQ water and fed with finely ground Tetramin® fish food until they developed into pupae.
Clean, glass 600 mL beakers were washed and thoroughly rinsed prior to use as test containers. On each of four testing days, pupae were removed from dishes used to grow larvae. Replicates of 10 pupae each were randomly assigned to glass beakers in a volume of 100 mL of sterile MilliQ water, and a treatment of nootkatone (see “Treatments” below), or a control treatment of ethanol alone, was added. The beakers were then covered lightly with Kimwipes, secured by rubber bands to prevent escape of adults. […]
An aliquot of 0.5 mL of a 3% solution (w/v) of nootkatone in 100% ethanol was added to treatment beakers to obtain a final concentration of 0.015% nootkatone/0.5% ethanol. Control beakers received 0.5 mL of 100% ethanol, to obtain a final concentration of 0.5% ethanol.

[4] = test system: Adult Aedes aegypti mosquitoes; assay: Prevention of adult mosquito egg laying on treated filter papers; fecundity and adult mortality (Example No. 8); settings: for Adult mosquito mortality: Affected, mean / Adult mosquito mortality: Dead, mean / Adult mosquito mortality: Knockdown, mean: 1% NK treated filter paper, cage of 100 mosquitoes; for Percent fecundity reduction, average: filter paper treated with 1 mL, dried, versus untreated paper in the same cage of 100 blood fed mosquitoes, triplicate
Protocol: Adult Aedes aegypti mosquitoes from a laboratory were blood fed and mated. Testing was conducted 2 days after administration of the blood meal to ensure that females were ready to oviposit.
White filter paper was cut to fit Petri dishes 9 cm in diameter, and each paper was treated with 1 mL of ethanol, 1% nootkatone, Formulation ECS-F-#605, or Formulation ECS-F_#607 (see Table No. 5). The filter papers were allowed to dry completely, and two Petri dishes were added to each cage of 100 blood fed mosquitoes, one treated, and one untreated control. A few milliliters of water was added to each Petri dish to provide a suitable egg laying site. […] Each treatment was tested in triplicate.
Female mosquitoes lay a high density of eggs (black spots) on suitable egg laying substrates, such as white filter paper. It was anticipated that either adult females would be repelled from egg laying sites that were treated with nootkatone, or that they would attempt to land and be poisoned by contacting nootkatone on the water surface. The rate of egg laying on the treated surface and the control surface, the presence of any adults found dead on the surface, and the overall mortality rate on a daily basis were recorded, and the average and standard error were calculated versus the untreated controls. […] An unexpected result was that filter papers treated with ethanol alone had 24% more eggs laid than the average of the untreated filter papers in the same cages. […] Photographs of representative filter papers are shown in FIG. 15, 1% nootkatone treatment (left), ethanol-only control (right).

Aedes aegypti larvae = assay: Liquefied nootkatone dripped onto the water surface as larvicide (Example No. 9, Treatment 1); settings: thirty one microliters liquefied nootkatone on 100 mL water; 25 larvae; 24 hours
Protocol: In this example, nootkatone-containing compositions were evaluated for their ability to act as a larvicide by coating a water surface. Mixed sex 3rd and 4th instar Aedes aegypti larvae (Yellow fever mosquito) were tested.
98% pure nootkatone crystals were held at 38° C. until they liquefied. Previous testing has shown that 1 mL of a 3% solution of nootkatone dissolved in ethanol, when added to 100 mL of water containing mosquito larvae, kills 100% of larvae in less than 24 hours. This experiment tested whether an equivalent amount of liquefied nootkatone alone is able to kill larvae. Thirty one microliters of liquified nootkatone crystals were dripped onto the surface of 100 mL of water in a 600 mL clean, glass beaker containing 25 mixed sex 3rd and 4th instar Aedes aegypti larvae.

[5] = 0.015% nootkatone/0.5% ethanol, after 48 hours, of 150 pupae

C=C(C)[C@@H]1CCC2=CC(=O)C[C@@H](C)[C@]2(C)C1 [Nootkatone, nootkatone]
larvae mortality rates ([1]; 0.01% nootkatone (v/v), twenty-four hours of exposure, FIG. 8): over 80% | killing at 24 hours ([1]; 0.01% nootkatone, larvae added 3 days after water treatment, FIG. 8): 98% | killing at 24 hours ([1]; 0.01% nootkatone, larvae added 7 days after water treatment, FIG. 8): 81% | larval mortality ([1]; 0.01% nootkatone, scored 48 hours after addition of larvae, 3-7 days after water treatment, FIG. 9): 100% | nootkatone killing duration ([1]; 0.03% concentration): at least two weeks | larvae killed within 24 hours ([1]; 0.03% nootkatone, beakers held two weeks before larvae, volume restored to 100 mL, FIG. 10): 100% | larvae mortality rates ([1]; 0.03% nootkatone, forty-eight hours of exposure, FIG. 9): 100% | larvae killed within 24 hours ([1]; 0.03% nootkatone, larvae added 3-7 days after water treatment, FIG. 8): 100% | pupae died within 24 hours, average (Aedes aegypti pupae [2]; 0.03% nootkatone/1% ethanol in water, average of two test days, controls 3%, FIG. 12): 94% | pupae died within 24 hours (Aedes aegypti pupae [2]; one experiment): 93% | pupae died within 24 hours (Aedes aegypti pupae [2]; second day of testing): 95% | Dead adults, total number (Aedes aegypti pupae [3]; 2 DAT (48 hours), of 150 pupae): 47 | Dead pupae, total number (Aedes aegypti pupae [3]; 2 DAT (48 hours), of 150 pupae): 103 | live adults, total number (Aedes aegypti pupae [3]; 2 DAT (48 hours), of 150 pupae): 0 | live pupae, total number (Aedes aegypti pupae [3]; 2 DAT (48 hours), of 150 pupae): 0 | Dead adults, total number (Aedes aegypti pupae [3]; 24 hr, of 150 pupae): 31 | Dead pupae, total number (Aedes aegypti pupae [3]; 24 hr, of 150 pupae): 31 | live adults, total number (Aedes aegypti pupae [3]; 24 hr, of 150 pupae): 0 | live pupae, total number (Aedes aegypti pupae [3]; 24 hr, of 150 pupae): 88 | survivors (Aedes aegypti pupae [3]; 0.015% nootkatone/0.5% ethanol (v/v) in water, after 48 hours): no survivors | share of pupae that died as pupae (Aedes aegypti pupae [3]; [5]): 68.7% | share of pupae that metamorphosed but died during eclosing (Aedes aegypti pupae [3]; [5]): 31.3% | Adult mosquito mortality: Affected, mean ([4]; 1 day post-exposure): 6.7 per cage | Adult mosquito mortality: Dead, mean ([4]; 1 day post-exposure): 6.7 per cage | Adult mosquito mortality: Knockdown, mean ([4]; 1 day post-exposure): 0.0 per cage | Adult mosquito mortality: Affected, mean ([4]; 2 days post-exposure): 10.7 per cage | Adult mosquito mortality: Dead, mean ([4]; 2 days post-exposure): 10.7 per cage | Adult mosquito mortality: Knockdown, mean ([4]; 2 days post-exposure): 0.0 per cage | total eggs laid on treated papers in 3 cages ([4]; 1% nootkatone in ethanol, versus 700-1100 eggs per cage on untreated papers): 2 eggs | Percent fecundity reduction, average [4]: 99% | Percent fecundity reduction, average ([4]; listed as NK): 99.9% | kill rates for mosquito larvae compared with nootkatone dissolved in ethanol (Aedes aegypti larvae): not as high as previous testing
